How the values were obtained:
[1] = tested on: HCT-116 (human colon) cells; test: Cell-Titer Glo Cell Growth Inhibition Assay; type: cell-based; conditions: HCT-116 cells, 72 h incubation, CellTiter-Glo, read-out: HCT116 IC50
Procedure: A549-L (human lung), Colo 205 (human colon), HCT-116 (human colon), HT29 (human colon), MX-1 (human breast), SKOV3 (human ovary) and P388 (murine leukemia) cell lines were cultured in RPM11640 containing 10% fetal bovine serum at 37° C. in a 5% CO2 incubator. Cell lines were split into T75 flasks (Falcon #353136) two to three days prior to assay set up at density which yields approximately 70-80% confluency at time of harvest for assay. Cells were harvested using 0.25% trypsin with EDTA (Glibco/Invitrogen #25200-056), Cell counts were performed on cell suspensions using Trypan Blue exclusion staining, cells were then plated in 105 µL of culture media per well at the following densities in 96 well Costar #3916 black flat bottom plates: A549-L 500 cells/well, Colo205 500 cells/well, HCT-116 500 cells/well, HT29 500 cells/well, MX-1 500 cells/well, SKOV3 500 cells/well and P388 250 cells/well. All plates were placed at 5% CO2 37° C. overnight and then test compounds were added the following day. One plate of each cell type was treated with CellTiter-Glo (Promega #G7573) for a day 0 proliferation measurement and read as described below. The test compounds were prepared in clear U bottom polypropylene 96 well plates (Falcon #35-1190 with consecutive two fold dilutions. 9 uL of these dilutions was added into each well of the cell plates. The final concentration of DMSO in all wells was 0.15%. Cells were incubated at 37° C., 5% CO2 for 72 h. Following 72 h of incubation with compounds each plate was developed and read. CellTiter-Glo reagent was added to assay plates using a volume equivalent to the cell culture volume in the wells. Plates were shaken for approximately 2 min and incubated at rt for approximately 15 min and the chemiluminescent signal was read on the Victor V or Envison 2100 reader. […] Concentration of compound that inhibited 50% of cell growth (IC50) was analyzed by 4 or 6 parameter fit of data using XLfit, value of no cell addition was substracted from all samples for background.

[2] = target: T1, PLK1 kinase domain (Homo sapiens, UniProt P53350); test: Assay for Inhibition of PLK1 (SPA, 33P-ATP); type: biochemical; conditions: 2 nM PLK1 kinase domain, 1 μM ATP, 22° C.; read-out: PLK1 pIC50 (converted)
T1 construct: made in house; host or cells: baculovirus infected T. ni cells
T1 sequence (P53350 21-346): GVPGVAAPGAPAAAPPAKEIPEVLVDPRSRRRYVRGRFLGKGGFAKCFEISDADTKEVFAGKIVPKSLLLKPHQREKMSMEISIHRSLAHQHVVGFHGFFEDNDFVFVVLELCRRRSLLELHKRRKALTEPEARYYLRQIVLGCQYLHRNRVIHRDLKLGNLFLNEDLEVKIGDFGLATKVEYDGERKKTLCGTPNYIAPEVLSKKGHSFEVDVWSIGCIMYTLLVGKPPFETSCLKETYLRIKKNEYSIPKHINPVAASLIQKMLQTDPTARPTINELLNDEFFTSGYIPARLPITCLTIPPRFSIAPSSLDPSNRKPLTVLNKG
Procedure: A. Preparation of 6× N-Terminal His-Tagged PLK Kinase Domain
All procedures were performed at 4° C. Cells were lysed in 50 mM HEPES, 200 mM NaCl, 50 mM imidazole, 5% glycerol; pH 7.5. The homogenate was centrifuged at 14K rpm in a SLA-1500 rotor for 1 hr and the supernatant filtered through a 1.2 micron filter. The supernatant was loaded onto a Nickel chelating Sepharose (Amersham Pharmacia) column and washed with lysis buffer. Protein was eluted using 20%, 30% and 100% buffer B steps where buffer B was 50 mM HEPES, 200 mM NaCl, 300 mM imidazole, 5% glycerol; pH 7.5. Fractions containing PLK were determined by SDS-PAGE. Fractions containing PLK were diluted five-fold with 50 mM HEPES, 1 mM DTT, 5% glycerol; pH 7.5, then loaded on an SP Sepharose (Amersham Pharmacia) column. After washing the column with 50 mM HEPES, 1 mM DTT, 5% glycerol; pH 7.5, PLK was step eluted with 50 mM HEPES, 1 mM DTT, 500 mM NaCl; 5% glycerol; pH 7.5. PLK was concentrated using a 10 kDa molecular weight cutoff membrane and then loaded onto a Superdex 200 gel filtration (Amersham Pharmacia) column equilibrated in 25 mM HEPES, 1 mM DTT, 500 mM NaCl, 5% glycerol; pH 7.5. Fractions containing PLK were determined by SDS-PAGE. PLK was pooled, aliquoted and stored at −80° C. Samples were quality controlled using mass spectrometry, N-terminal sequencing and amino acid analysis.
B. Enzyme Activity +/− Inhibitors was Determined as Follows:
All measurements were obtained under conditions where signal production increased linearly with time and enzyme. Test compounds were added to white 384-well assay plates (0.1 μL for 10 μL and some 20 μL assays, 1 μL for some 20 μL assays) at variable known concentrations in 100% DMSO. DMSO (1-5% final, as appropriate) and EDTA (65 mM in reaction) were used as controls.
Reaction Mix (10 or 20 μL) was quickly added to each well immediately following addition of enzyme via automated liquid handlers and incubated 1-1.5 h at 22° C. The 20 μL enzymatic reactions were stopped with 50 μL of stop mix (50 mM EDTA, 4.0 mg/mL Streptavidin SPA beads in Standard Dulbecco's PBS (without Mg^2+ and Ca^2+), 50 μM ATP) per well. The 10 μL reactions were stopped with 10 μL of stop mix (50 mM EDTA, 3.0 mg/mL Streptavidin-coupled SPA Imaging Beads (“LeadSeeker”) in Standard Dulbecco's PBS (without Mg^2+ and Ca^2+), 50 μM ATP) per well. Plates were sealed with clear plastic seals, spun at 500×g for 1 min or settled overnight, and counted in Packard TopCount for 30 seconds/well (regular SPA) or imaged using a Viewlux imager (LeadSeeker SPA). Signal above background (EDTA controls) was converted to percent inhibition relative to that obtained in control (DMSO-only) wells.

| Structure (SMILES) | IC50 [1] [nM] | IC50 [2] [nM] |
| --- | --- | --- |
| C[C@@H](Oc1cc(-n2cnc3cc(-c4ccnc(NCCN5CCOCC5)c4)ccc32)sc1C(N)=O)c1ccccc1Cl [Example 12, 3-{[(1R)-1-(2-chlorophenyl)ethyl]oxy}-5-[5-(2-{[2-(4-morpholinyl)ethyl]amino}-4-pyridinyl)-1H-benzimidazol-1-yl]-2-thiophenecarboxamide] | < 500 | < 100 |
| C[C@@H](Oc1cc(-n2cnc3cc(-c4ccnc(N(C)CCCN(C)C)c4)ccc32)sc1C(N)=O)c1ccccc1C(F)(F)F [Example 8, 5-(5-{2-[[3-(Dimethylamino)propyl](methyl)amino]-4-pyridinyl}-1H-benzimidazol-1-yl)-3-({(1R)-1-[2-(trifluoromethyl)phenyl]ethyl}oxy)-2-thiophenecarboxamide] | < 500 | < 100 |
| C[C@@H](Oc1cc(-n2cnc3cc(-c4ccnc(NC(=O)CN(C)C)c4)ccc32)sc1C(N)=O)c1ccccc1C(F)(F)F [Example 3, 5-(5-{2-[(N,N-dimethylglycyl)amino]-4-pyridinyl}-1H-benzimidazol-1-yl)-3-({(1R)-1-[2-(trifluoromethyl)phenyl]ethyl}oxy)-2-thiophenecarboxamide] | < 500 | < 100 |
| C[C@@H](Oc1cc(-n2cnc3cc(-c4ccnc(NCCCN(C)C)c4)ccc32)sc1C(N)=O)c1ccccc1C(F)(F)F [Example 5, 5-[5-(2-{[3-(Dimethylamino)propyl]amino}-4-pyridinyl)-1H-benzimidazol-1-yl]-3-([(1R)-1-[2-(trifluoromethyl)phenyl]ethyl]oxy)-2-thiophenecarboxamide] | < 500 | < 100 |
| C[C@@H](Oc1cc(-n2cnc3cc(-c4ccnc(NCCN(C)C)c4)ccc32)sc1C(N)=O)c1ccccc1Cl [Example 10, 3-{[(1R)-1-(2-chlorophenyl)ethyl]oxy}-5-[5-(2-{[2-(dimethylamino)ethyl]amino}-4-pyridinyl)-1H-benzimidazol-1-yl]-2-thiophenecarboxamide] | < 500 | < 100 |
| C[C@@H](Oc1cc(-n2cnc3cc(-c4ccnc(NC(=O)CN)c4)ccc32)sc1C(N)=O)c1ccccc1C(F)(F)F [Example 4, 5-{5-[2-(Glycylamino)-4-pyridinyl]-1H-benzimidazol-1-yl}-3-({(1R)-1-[2-(trifluoromethyl)phenyl]ethyl}oxy)-2-thiophenecarboxamide] | < 500 | < 100 |
| C[C@@H](Oc1cc(-n2cnc3cc(-c4ccnc(NCCCN5CCN(C)CC5)c4)ccc32)sc1C(N)=O)c1ccccc1C(F)(F)F [Example 9, 5-[5-(2-{[3-(4-Methyl-1-piperazinyl)propyl]amino}-4-pyridinyl)-1H-benzimidazol-1-yl]-3-({(1R)-1-[2-(trifluoromethyl)phenyl]ethyl}oxy)-2-thiophenecarboxamide] | < 500 | < 100 |
| C[C@@H](Oc1cc(-n2cnc3cc(-c4ccnc(NC[C@@H](O)CO)c4)ccc32)sc1C(N)=O)c1ccccc1Cl [Example 13, 3-{[(1R)-1-(2-chlorophenyl)ethyl]oxy}-5-[5-(2-{[(2R)-2,3-dihydroxypropyl]amino}-4-pyridinyl)-1H-benzimidazol-1-yl]-2-thiophenecarboxamide] | < 500 | < 100 |
| C[C@@H](Oc1cc(-n2cnc3cc(-c4ccnc(NCCN(C)C)n4)ccc32)sc1C(N)=O)c1ccccc1C(F)(F)F [Example 16, 5-[5-(2-{[2-(Dimethylamino)ethyl]amino}pyrimidin-4-yl)-1H-benzimidazol-1-yl]-3-({(1R)-1-[2-(trifluoromethyl)phenyl]ethyl}oxy)thiophene-2-carboxamide] | < 500 | < 100 |

Now from value to molecule:

| IC50 [1] [nM] | IC50 [2] [nM] | Structure (SMILES) |
| --- | --- | --- |
| < 500 | < 100 | C[C@@H](Oc1cc(-n2cnc3cc(-c4ccnc(NCCCN5CCN(C)CC5)n4)ccc32)sc1C(N)=O)c1ccccc1Cl [Example 17, 3-{[(1R)-1-(2-chlorophenyl)ethyl]oxy}-5-[5-(2-{[3-(4-methyl-1-piperazinyl)propyl]amino}-4-pyrimidinyl)-1H-benzimidazol-1-yl]-2-thiophenecarboxamide] |
| < 500 | < 100 | C[C@@H](Oc1cc(-n2cnc3cc(-c4cccc(OCCN5CCCC5)c4)ccc32)sc1C(N)=O)c1ccccc1Cl [Example 23, 3-{[(1R)-1-(2-chlorophenyl)ethyl]oxy}-5-[5-(3-{[2-(1-Pyrrolidinyl)ethyl]oxy}phenyl)-1H-benzimidazol-1-yl]-2-thiophenecarboxamide] |
| < 500 | < 100 | C[C@@H](Oc1cc(-n2cnc3cc(-c4ccc(NCCCN5CCN(C)CC5)nc4)ccc32)sc1C(N)=O)c1ccccc1Cl [Example 31, 3-{[(1R)-1-(2-chlorophenyl)ethyl]oxy}-5-[5-(6-{[3-(4-methyl-1-piperazinyl)propyl]amino}-3-pyridinyl)-1H-benzimidazol-1-yl]-2-thiophenecarboxamide] |
| < 500 | < 100 | C[C@@H](Oc1cc(-n2cnc3cc(-c4ccc(NCCN(C)C)nc4)ccc32)sc1C(N)=O)c1ccccc1C(F)(F)F [Example 25, 5-[5-(6-{[2-(dimethylamino)ethyl]amino}-3-pyridinyl)-1H-benzimidazol-1-yl]-3-({(1R)-1-[2-(trifluoromethyl)phenyl]ethyl}oxy)-2-thiophenecarboxamide] |
| < 500 | < 100 | C[C@@H](Oc1cc(-n2cnc3cc(-c4ccc(N(C)CCN(C)C)nc4)ccc32)sc1C(N)=O)c1ccccc1Cl [Example 27, 3-{[(1R)-1-(2-chlorophenyl)ethyl]oxy}-5-(5-[6-[[2-(dimethylamino)ethyl](methyl)amino]-3-pyridinyl]-1H-benzimidazol-1-yl)-2-thiophenecarboxamide] |
| < 500 | < 100 | C[C@@H](Oc1cc(-n2cnc3cc(-c4ccc(NCCCN(C)C)nc4)ccc32)sc1C(N)=O)c1ccccc1Cl [Example 29, 3-{[(1R)-1-(2-chlorophenyl)ethyl]oxy}-5-[5-(6-{[3-(dimethylamino)propyl]amino}-3-pyridinyl)-1H-benzimidazol-1-yl]-2-thiophenecarboxamide] |
| < 500 | < 100 | C[C@@H](Oc1cc(-n2cnc3cc(-c4ccc(NCCN5CCOCC5)nc4)ccc32)sc1C(N)=O)c1ccccc1Cl [Example 32, 3-{[(1R)-1-(2-chlorophenyl)ethyl]oxy}-5-[5-(6-{[2-(4-morpholinyl)ethyl]amino}-3-pyridinyl)-1H-benzimidazol-1-yl]-2-thiophenecarboxamide] |
